According to patent publication US7045537B1, “Protein structures and protein fibres” (The University of Sussex, priority 1999, dated 2006):
Residues, ends and D or L forms follow the SMILES beside them.

Key:
Format in all cases: physicochemical
[1] = Circular dichroism (CD) spectroscopy of peptides and peptide mixtures; settings: individual peptide, 10 mM MOPS pH 7, 5° C.
Description: Peptide samples were incubated at 5° C. in 10 mM MOPS (3-(N-Morpholino)propanesulfonic acid), pH 7. Sample concentrations were determined from their UV absorbance at 280 nm (SAF-p1) and 214 nm (SAF-p2). After baseline correction, ellipticities in mdeg were converted to molar ellipticities (deg cm^2 dmol-res^−1) by normalizing for the concentration of peptide bonds. Data were recorded in a cell of 1 mm path length by integrating the signal for 5s (and 1s for the fresh 100 μM peptide mixture) every nm in the range 205–260 nm. CD measurements were made using a JASCO J-715 spectropolarimeter fitted with a Peltier temperature controller.
The CD data shown in FIG. 3 provides spectroscopic evidence for the formation of helical structures by the SAF peptides.
Consistent with our design, neither SAF-p1 nor SAF-p2 was highly structured in aqueous solution at pH 7 and 5° C. (FIG. 3). However, when mixed in equal proportions the circular dichroism (CD) spectrum changed and, moreover, was markedly different from the theoretical spectrum generated by averaging the spectra for the isolated peptides. In particular, the spectrum for the mixture had intense minima at 208 and 222 nm consistent with the formation of α-helical structure, but these features were not as pronounced in the spectra of the individual peptides. This was clear evidence that the two peptides interacted to form an α-helical structure as designed. Furthermore, and as expected for a multimerization event, the magnitude of these spectral changes depended on peptide concentration; a SAF mixture with 10 μM of each peptide, did show a weak signal indicative of some α-helical structure, however, a 100 μM mixture gave a much stronger signal (FIGS. 3A&B).
The shape and intensity of spectra from 100 μM mixtures of the SAF peptides also changed with time (FIG. 3B). […] After incubation of the mixture for 1 hour at 5° C. (“maturation”), however, the signal at 222 nm was more intense, and indicated approximately 75% α-helix, consistent with substantial coiled-coil formation.

[2] = Electron microscopy (TEM/SEM) of peptide preparations; settings: individual peptide
Description: To confirm fibre assembly, we used electron microscopy to visualize structures in the peptide preparations directly. For TEM experiments, peptide samples were incubated for 1 h at 5° C. in filtered 10 mM MOPS, pH 7. A drop of peptide solution was applied to a carbon-coated copper specimen grid (Agar Scientific Ltd, Stansted, UK), and dried with filter paper before negative staining with 0.5% aqueous uranyl acetate and then dried at 5° C. A “fresh” SAF peptide mixture was prepared by mixing preincubated solutions of the individual peptides at 200 μM directly on the specimen grid, before drying and negative staining as described. Grids were examined in a Hitachi 7100 TEM at 100 kV and digital images were acquired with a (800×1200 pixel) charge-coupled device camera (Digital Pixel Co. Ltd., Brighton, UK) and analyzed (Kinetic Imaging Ltd., Liverpool, UK).
For scanning electron microscopy (SEM) experiments, negatively-stained specimen grids were sputter-coated with gold and examined in a Leo Stereoscan 420 SEM at 20 kV and with a probe current of 10 pA.

[3] = Solubility remarks in peptide design table; settings: individual peptide
From the text: Various peptide monomer units were designed as described above. The monomers and capping peptides (designed to complement the sticky ends of the monomers so as to produce flush, or blunt ends and, so, arrest longitudinal fibre assembly) are set out in Table 1: […]

[4] = Linear dichroism (LD) spectroscopy under shear flow; settings: for LD DATA @ 100 μM (signal): individual peptide
Description: Linear dichroism (LD) spectroscopy was also used to test if elongated structures were being formed as designed. Long polymers such as DNA molecules can be oriented by shear flow. This effect can be monitored by LD spectroscopy provided that chromophores also become aligned by the flow (M. Bloemendal (1994) Chem. Soc. Rev. 23, 265; A. Rodger and B. Norden (1997) Oxford Chemistry Masters (Oxford University Press, Oxford), vol. 1).
Peptide samples were prepared for LD as for CD. LD data were collected on samples spinning in a couette flow cell by integrating the signal for 2 s every nm in the range […], using a JASCO J-715 spectropolarimeter. After baseline correction, absorbance was converted to molar extinction coefficient (1 mol-res^−1 cm^−1) by normalizing for the concentration of peptide bonds. A linear correction for a sloping baseline was made to the data from the 100 μM SAF peptide mixture.

| Compound | CD DATA @ 10 μM (α-helix) [1] | CD DATA @ 100 μM (α-helix) [1] [%] | EM DATA @ 100 μM (fibres) [2] | DESIGN remark on solubility / precipitation [3] | LD DATA @ 100 μM (signal) [4] | LD signal ([4]; 20 μM) |
| --- | --- | --- | --- | --- | --- | --- |
| CC[C@H](C)[C@H](NC(=O)[C@H](CCCCN)NC(=O)[C@H](CCC(N)=O)NC(=O)[C@H](CCCCN)NC(=O)[C@H](CC(C)C)NC(=O)[C@H](C)NC(=O)[C@H](C)NC(=O)[C@@H](NC(=O)[C@@H](N)CCCCN)[C@@H](C)CC)C(=O)N[C@@H](C)C(=O)N[C@@H](C)C(=O)N[C@@H](CC(C)C)C(=O)N[C@@H](CCCCN)C(=O)N[C@@H](CCC(N)=O)C(=O)N[C@@H](CCC(=O)O)C(=O)N[C@H](C(=O)N[C@@H](CC(=O)O)C(=O)N[C@@H](C)C(=O)N[C@@H](CC(C)C)C(=O)N[C@@H](CCC(=O)O)C(=O)N[C@@H](Cc1ccc(O)cc1)C(=O)N[C@@H](CCC(=O)O)C(=O)N[C@@H](CC(N)=O)C(=O)N[C@@H](CC(=O)O)C(=O)N[C@@H](C)C(=O)N[C@@H](CC(C)C)C(=O)N[C@@H](CCC(=O)O)C(=O)N[C@@H](CCC(N)=O)C(=O)O)[C@@H](C)CC [SAF-p1A] (H-KIAALKQKIAALKQEIDALEYENDALEQ-OH) | unfolded | ~45 | no | precipitates |  |  |
| CC[C@H](C)[C@H](NC(=O)[C@H](CCCCN)NC(C)=O)C(=O)N[C@@H](C)C(=O)N[C@@H](C)C(=O)N[C@@H](CC(C)C)C(=O)N[C@@H](CCCCN)C(=O)N[C@@H](CCC(N)=O)C(=O)N[C@@H](CCCCN)C(=O)N[C@H](C(=O)N[C@@H](C)C(=O)N[C@@H](C)C(=O)N[C@@H](CC(C)C)C(=O)N[C@@H](CCCCN)C(=O)N[C@@H](CCC(N)=O)C(=O)N[C@@H](CCC(=O)O)C(=O)N[C@H](C(=O)N[C@@H](CC(=O)O)C(=O)N[C@@H](C)C(=O)N[C@@H](CC(C)C)C(=O)N[C@@H](CCC(=O)O)C(=O)N[C@@H](Cc1ccc(O)cc1)C(=O)N[C@@H](CCC(=O)O)C(=O)N[C@@H](CC(N)=O)C(=O)N[C@@H](CC(=O)O)C(=O)N[C@@H](C)C(=O)N[C@@H](CC(C)C)C(=O)N[C@@H](CCC(=O)O)C(=O)N[C@@H](CCC(N)=O)C(N)=O)[C@@H](C)CC)[C@@H](C)CC [SAF-p1B, *K IAALKQK IAALKQE IDALEYE NDALEQ*] (Ac-KIAALKQKIAALKQEIDALEYENDALEQ-NH2) | ~60% | ~70 |  |  |  |  |
| CC[C@H](C)[C@H](NC(=O)[C@H](CCCCN)NC(=O)[C@H](CCC(N)=O)NC(=O)[C@H](CCCCN)NC(=O)[C@H](CC(C)C)NC(=O)[C@H](C)NC(=O)[C@H](C)NC(=O)[C@@H](NC(=O)[C@@H](N)CCCCN)[C@@H](C)CC)C(=O)N[C@@H](C)C(=O)N[C@@H](CO)C(=O)N[C@@H](CC(C)C)C(=O)N[C@@H](CCCCN)C(=O)N[C@@H](CCC(N)=O)C(=O)N[C@@H](CCC(=O)O)C(=O)N[C@H](C(=O)N[C@@H](CC(=O)O)C(=O)N[C@@H](C)C(=O)N[C@@H](CC(C)C)C(=O)N[C@@H](CCC(=O)O)C(=O)N[C@@H](Cc1ccc(O)cc1)C(=O)N[C@@H](CCC(=O)O)C(=O)N[C@@H](CC(N)=O)C(=O)N[C@@H](CC(=O)O)C(=O)N[C@@H](C)C(=O)N[C@@H](CC(C)C)C(=O)N[C@@H](CCC(=O)O)C(=O)N[C@@H](CCC(N)=O)C(=O)O)[C@@H](C)CC [SAF-p1C] (H-KIAALKQKIASLKQEIDALEYENDALEQ-OH) | unfolded | ~20 | no |  | no |  |
| CC[C@H](C)[C@H](NC(=O)[C@H](CCC(=O)O)NC(=O)[C@H](CCC(N)=O)NC(=O)[C@H](CCC(=O)O)NC(=O)[C@H](CC(C)C)NC(=O)[C@H](C)NC(=O)[C@H](C)NC(=O)[C@@H](NC(=O)[C@H](CCC(=O)O)NC(=O)[C@H](CCC(N)=O)NC(=O)[C@H](CCCCN)NC(=O)[C@H](CC(C)C)NC(=O)[C@H](Cc1c[nH]cn1)NC(=O)[C@H](C)NC(=O)[C@H](CC(N)=O)NC(=O)[C@H](CCCCN)NC(=O)[C@H](Cc1c[nH]c2ccccc12)NC(=O)[C@H](CCCCN)NC(=O)[C@H](CC(C)C)NC(=O)[C@H](C)NC(=O)[C@H](CCCNC(=N)N)NC(=O)[C@@H](NC(=O)[C@H](CCCCN)NC(C)=O)[C@@H](C)CC)[C@@H](C)CC)C(=O)N[C@@H](C)C(=O)N[C@@H](C)C(=O)N[C@@H](CC(C)C)C(=O)N[C@@H](CCC(=O)O)C(=O)N[C@@H](CCC(N)=O)C(N)=O [SAF-p2B, *K IRALKWK NAHLKQE IAALEQE IAALEQ*] (Ac-KIRALKWKNAHLKQEIAALEQEIAALEQ-NH2) | ~60% | ~95 |  |  |  |  |
| CC[C@H](C)[C@H](NC(=O)[C@H](CCC(=O)O)NC(=O)[C@H](CCC(N)=O)NC(=O)[C@H](CCC(=O)O)NC(=O)[C@H](CC(C)C)NC(=O)[C@H](C)NC(=O)[C@H](C)NC(=O)[C@@H](NC(=O)[C@H](CCC(=O)O)NC(=O)[C@H](CCC(N)=O)NC(=O)[C@H](CCCCN)NC(=O)[C@H](CC(C)C)NC(=O)[C@H](Cc1c[nH]cn1)NC(=O)[C@H](C)NC(=O)[C@H](CC(N)=O)NC(=O)[C@H](CCCCN)NC(=O)[C@H](Cc1c[nH]c2ccccc12)NC(=O)[C@H](CCCCN)NC(=O)[C@H](CC(C)C)NC(=O)[C@H](C)NC(=O)[C@H](CCCNC(=N)N)NC(=O)[C@@H](NC(=O)[C@@H](N)CCCCN)[C@@H](C)CC)[C@@H](C)CC)C(=O)N[C@@H](C)C(=O)N[C@@H](C)C(=O)N[C@@H](CC(C)C)C(=O)N[C@@H](CCC(=O)O)C(=O)N[C@@H](CCC(N)=O)C(=O)O [SAF-p2C] (H-KIRALKWKNAHLKQEIAALEQEIAALEQ-OH) | unfolded | ~20 | thin |  |  |  |
| CC[C@H](C)[C@H](NC(=O)[C@H](CCC(=O)O)NC(=O)[C@H](CCC(N)=O)NC(=O)[C@H](CCC(=O)O)NC(=O)[C@H](CC(C)C)NC(=O)[C@H](C)NC(=O)[C@H](C)NC(=O)[C@@H](NC(=O)[C@H](CCC(=O)O)NC(=O)[C@H](CCC(N)=O)NC(=O)[C@H](CCCCN)NC(=O)[C@H](CC(C)C)NC(=O)[C@H](Cc1c[nH]cn1)NC(=O)[C@H](C)NC(=O)[C@H](CC(N)=O)NC(=O)[C@H](CCCCN)NC(=O)[C@H](C)NC(=O)[C@H](CCCCN)NC(=O)[C@H](CC(C)C)NC(=O)[C@H](C)NC(=O)[C@H](CCCNC(=N)N)NC(=O)[C@@H](NC(=O)[C@@H](N)CCCCN)[C@@H](C)CC)[C@@H](C)CC)C(=O)N[C@@H](C)C(=O)N[C@@H](C)C(=O)N[C@@H](CC(C)C)C(=O)N[C@@H](CCC(=O)O)C(=O)N[C@@H](CCC(N)=O)C(=O)O [SAF-p2D] (H-KIRALKAKNAHLKQEIAALEQEIAALEQ-OH) | ~15% | ~45 | no |  | no |  |
| K ISALKNK NASLKQE IAALEQE IAALEQ (KISALKNKNASLKQEIAALEQEIAALEQ) [SAF-p2A] | unfolded |  |  | low solubility |  |  |
| tropomyosin [reference compound] |  |  |  |  |  | could be aligned to give a LD signal |
